{
  "source": "the kinase profiling compilation of Christmann-Franck et al. (2016)",
  "test_in_all_cases": "KINOMEscan competition binding",
  "settings_in_all_cases": "compound 10.0 µM",
  "key": {"[1]": {"target": "PLK1 (human) (UniProt P53350)", "sequence (P53350 whole entry, looked up)": "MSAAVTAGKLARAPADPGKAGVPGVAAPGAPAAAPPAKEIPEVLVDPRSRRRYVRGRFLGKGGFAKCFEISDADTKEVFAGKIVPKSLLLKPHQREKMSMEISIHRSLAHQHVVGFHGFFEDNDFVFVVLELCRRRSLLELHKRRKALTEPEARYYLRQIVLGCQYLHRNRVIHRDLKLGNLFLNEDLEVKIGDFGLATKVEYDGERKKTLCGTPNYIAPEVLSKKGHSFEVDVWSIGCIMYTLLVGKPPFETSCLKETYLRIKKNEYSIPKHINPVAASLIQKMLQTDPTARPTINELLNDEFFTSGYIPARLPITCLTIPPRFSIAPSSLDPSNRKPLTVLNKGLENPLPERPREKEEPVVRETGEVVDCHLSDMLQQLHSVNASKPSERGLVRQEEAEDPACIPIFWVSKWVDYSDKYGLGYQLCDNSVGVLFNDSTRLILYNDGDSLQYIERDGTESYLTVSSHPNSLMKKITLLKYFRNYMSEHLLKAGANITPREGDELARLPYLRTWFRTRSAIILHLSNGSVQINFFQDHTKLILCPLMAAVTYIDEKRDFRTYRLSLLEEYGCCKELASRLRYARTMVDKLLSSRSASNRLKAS"}, "[2]": {"target": "DCLK1 (human) (UniProt O15075)", "sequence (O15075 whole entry, looked up)": "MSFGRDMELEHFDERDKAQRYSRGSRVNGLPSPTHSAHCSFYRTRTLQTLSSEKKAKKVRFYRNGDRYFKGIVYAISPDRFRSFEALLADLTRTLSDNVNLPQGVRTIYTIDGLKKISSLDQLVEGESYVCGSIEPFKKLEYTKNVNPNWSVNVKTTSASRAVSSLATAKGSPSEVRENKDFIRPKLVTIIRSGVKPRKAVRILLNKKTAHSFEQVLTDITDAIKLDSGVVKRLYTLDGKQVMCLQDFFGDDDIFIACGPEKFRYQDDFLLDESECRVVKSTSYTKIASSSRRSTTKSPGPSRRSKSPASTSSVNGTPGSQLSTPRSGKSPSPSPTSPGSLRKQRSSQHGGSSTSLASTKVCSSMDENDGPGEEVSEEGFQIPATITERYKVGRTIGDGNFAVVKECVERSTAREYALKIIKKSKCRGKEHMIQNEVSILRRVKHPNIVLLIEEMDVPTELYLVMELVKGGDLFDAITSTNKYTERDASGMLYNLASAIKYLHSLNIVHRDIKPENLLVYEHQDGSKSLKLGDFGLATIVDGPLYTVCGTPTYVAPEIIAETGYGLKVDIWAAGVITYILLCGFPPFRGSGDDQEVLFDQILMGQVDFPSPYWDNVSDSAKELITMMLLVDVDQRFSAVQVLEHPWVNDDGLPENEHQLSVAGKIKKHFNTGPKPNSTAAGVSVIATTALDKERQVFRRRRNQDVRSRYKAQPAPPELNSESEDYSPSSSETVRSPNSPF"}, "[3]": {"target": "DCLK2 (human) (UniProt Q8N568)", "sequence (Q8N568 whole entry, looked up)": "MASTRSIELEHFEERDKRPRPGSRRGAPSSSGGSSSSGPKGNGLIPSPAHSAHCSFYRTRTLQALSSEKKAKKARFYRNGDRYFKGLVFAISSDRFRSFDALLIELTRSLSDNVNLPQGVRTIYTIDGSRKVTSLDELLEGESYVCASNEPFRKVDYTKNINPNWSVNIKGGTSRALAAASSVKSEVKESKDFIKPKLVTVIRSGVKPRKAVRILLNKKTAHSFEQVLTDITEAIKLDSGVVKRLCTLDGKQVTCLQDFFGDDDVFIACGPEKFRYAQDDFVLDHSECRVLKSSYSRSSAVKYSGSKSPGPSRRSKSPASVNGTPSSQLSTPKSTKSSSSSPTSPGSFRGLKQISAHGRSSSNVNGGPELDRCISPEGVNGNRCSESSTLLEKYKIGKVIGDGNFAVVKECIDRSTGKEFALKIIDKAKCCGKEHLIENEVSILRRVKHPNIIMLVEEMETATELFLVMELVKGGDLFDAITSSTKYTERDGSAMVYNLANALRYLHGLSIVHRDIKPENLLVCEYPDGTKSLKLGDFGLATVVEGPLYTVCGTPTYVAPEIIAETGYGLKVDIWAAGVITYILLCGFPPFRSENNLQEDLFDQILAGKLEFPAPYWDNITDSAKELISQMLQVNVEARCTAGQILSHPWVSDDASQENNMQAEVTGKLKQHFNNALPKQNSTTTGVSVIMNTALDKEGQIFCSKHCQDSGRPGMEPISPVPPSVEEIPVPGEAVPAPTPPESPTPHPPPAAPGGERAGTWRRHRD"}, "[4]": {"target": "PRKCQ (human) (UniProt Q04759)"}, "[5]": {"target": "GAK (human) (UniProt O14976)", "sequence (O14976 whole entry, looked up)": "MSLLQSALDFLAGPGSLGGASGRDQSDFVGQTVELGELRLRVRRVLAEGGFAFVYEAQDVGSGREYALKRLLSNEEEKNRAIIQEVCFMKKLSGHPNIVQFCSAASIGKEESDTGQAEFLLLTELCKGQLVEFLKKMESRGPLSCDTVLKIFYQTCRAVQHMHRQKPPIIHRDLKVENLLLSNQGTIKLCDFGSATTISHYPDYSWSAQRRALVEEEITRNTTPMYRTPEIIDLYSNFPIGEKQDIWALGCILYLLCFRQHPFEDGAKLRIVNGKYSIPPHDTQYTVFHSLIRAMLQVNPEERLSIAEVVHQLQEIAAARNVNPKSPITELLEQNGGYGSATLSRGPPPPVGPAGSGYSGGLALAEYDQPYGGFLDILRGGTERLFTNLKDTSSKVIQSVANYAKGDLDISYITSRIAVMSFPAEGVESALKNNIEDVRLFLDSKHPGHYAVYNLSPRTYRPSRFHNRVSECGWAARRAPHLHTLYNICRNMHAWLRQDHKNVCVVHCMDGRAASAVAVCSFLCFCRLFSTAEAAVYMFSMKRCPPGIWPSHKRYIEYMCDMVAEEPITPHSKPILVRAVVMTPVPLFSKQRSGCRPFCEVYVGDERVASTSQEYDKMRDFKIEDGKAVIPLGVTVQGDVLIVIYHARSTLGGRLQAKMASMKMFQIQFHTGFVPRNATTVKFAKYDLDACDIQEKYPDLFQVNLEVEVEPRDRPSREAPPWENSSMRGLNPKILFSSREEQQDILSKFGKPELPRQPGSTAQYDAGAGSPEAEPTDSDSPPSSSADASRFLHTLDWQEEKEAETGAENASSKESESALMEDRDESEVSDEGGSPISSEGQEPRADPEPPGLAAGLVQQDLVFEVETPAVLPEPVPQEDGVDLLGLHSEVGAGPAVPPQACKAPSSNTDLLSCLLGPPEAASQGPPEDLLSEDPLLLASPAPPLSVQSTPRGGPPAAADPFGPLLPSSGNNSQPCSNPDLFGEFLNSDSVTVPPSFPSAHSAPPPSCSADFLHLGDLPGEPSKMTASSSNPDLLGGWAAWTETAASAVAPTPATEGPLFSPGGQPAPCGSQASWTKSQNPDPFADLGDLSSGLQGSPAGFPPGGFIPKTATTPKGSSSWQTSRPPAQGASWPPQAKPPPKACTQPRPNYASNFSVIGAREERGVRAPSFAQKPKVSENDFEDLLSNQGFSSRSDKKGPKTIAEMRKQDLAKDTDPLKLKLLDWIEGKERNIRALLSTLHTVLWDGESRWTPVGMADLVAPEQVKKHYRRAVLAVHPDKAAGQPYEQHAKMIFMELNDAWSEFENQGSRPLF"}, "[6]": {"target": "MYLK (human) (UniProt Q15746)"}, "[7]": {"target": "NLK (human) (UniProt Q9UBE8)"}, "[8]": {"target": "TTK (human) (UniProt P33981)"}, "[9]": {"target": "PKN1 (human) (UniProt Q16512)"}, "[10]": {"target": "MAPK7 (human) (UniProt Q13164)"}, "[11]": {"target": "PLK3 (human) (UniProt Q9H4B4)"}, "[12]": {"target": "BMPR1B (human) (UniProt O00238)"}, "[13]": {"target": "KIT (human) (UniProt P10721)"}, "[14]": {"target": "AURKB (human) (UniProt Q96GD4)"}, "[15]": {"target": "STK16 (human) (UniProt O75716)"}, "[16]": {"target": "ROS1 (human) (UniProt P08922)"}, "[17]": {"target": "PRKD3 (human) (UniProt O94806)"}, "[18]": {"system": "RET (human), P07949 [V804L]", "sequence (P07949 whole entry V804L, looked up)": "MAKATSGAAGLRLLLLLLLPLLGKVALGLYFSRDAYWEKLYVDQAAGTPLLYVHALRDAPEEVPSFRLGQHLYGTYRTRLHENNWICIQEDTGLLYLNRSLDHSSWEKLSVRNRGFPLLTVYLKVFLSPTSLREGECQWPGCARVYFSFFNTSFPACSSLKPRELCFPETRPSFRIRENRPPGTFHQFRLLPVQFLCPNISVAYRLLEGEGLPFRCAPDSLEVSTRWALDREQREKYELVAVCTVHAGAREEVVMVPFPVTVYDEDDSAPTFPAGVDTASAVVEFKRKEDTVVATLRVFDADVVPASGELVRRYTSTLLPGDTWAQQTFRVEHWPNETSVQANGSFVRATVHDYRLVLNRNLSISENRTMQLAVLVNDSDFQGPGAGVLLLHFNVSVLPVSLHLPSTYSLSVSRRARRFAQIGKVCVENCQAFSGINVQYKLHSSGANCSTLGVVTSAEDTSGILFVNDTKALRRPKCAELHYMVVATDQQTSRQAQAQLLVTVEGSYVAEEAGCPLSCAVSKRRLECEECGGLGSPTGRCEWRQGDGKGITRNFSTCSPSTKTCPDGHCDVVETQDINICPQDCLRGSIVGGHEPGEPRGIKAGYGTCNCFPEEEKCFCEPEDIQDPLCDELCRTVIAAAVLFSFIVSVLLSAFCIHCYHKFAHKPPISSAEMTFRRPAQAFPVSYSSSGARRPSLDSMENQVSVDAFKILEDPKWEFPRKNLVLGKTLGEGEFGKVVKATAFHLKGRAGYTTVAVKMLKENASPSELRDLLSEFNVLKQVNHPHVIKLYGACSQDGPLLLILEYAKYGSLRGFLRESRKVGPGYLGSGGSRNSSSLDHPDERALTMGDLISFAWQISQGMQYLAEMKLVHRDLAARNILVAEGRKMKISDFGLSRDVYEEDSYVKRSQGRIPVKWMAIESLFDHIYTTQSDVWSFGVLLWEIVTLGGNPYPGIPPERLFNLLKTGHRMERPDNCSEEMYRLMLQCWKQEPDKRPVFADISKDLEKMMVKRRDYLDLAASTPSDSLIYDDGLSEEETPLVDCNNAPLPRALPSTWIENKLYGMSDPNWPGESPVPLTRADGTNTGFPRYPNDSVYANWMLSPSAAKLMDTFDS"}, "[19]": {"target": "AURKA (human) (UniProt O14965)"}, "[20]": {"target": "CAMKK2 (human) (UniProt Q96RR4)"}, "[21]": {"target": "MKNK2 (human) (UniProt Q9HBH9)"}, "[22]": {"target": "NUAK1 (human) (UniProt O60285)"}, "[23]": {"target": "PIK3CD (human) (UniProt O00329)"}, "[24]": {"system": "KIT (human), P10721 [V559D]"}, "[25]": {"target": "TAOK3 (human) (UniProt Q9H2K8)"}, "[26]": {"system": "ABL1 (human), P00519 [T315I]"}, "[27]": {"target": "ACVR1 (human) (UniProt Q04771)"}, "[28]": {"target": "PRKD1 (human) (UniProt Q15139)"}, "[29]": {"target": "PIP5K1A (human) (UniProt Q99755)", "sequence (Q99755 whole entry, looked up)": "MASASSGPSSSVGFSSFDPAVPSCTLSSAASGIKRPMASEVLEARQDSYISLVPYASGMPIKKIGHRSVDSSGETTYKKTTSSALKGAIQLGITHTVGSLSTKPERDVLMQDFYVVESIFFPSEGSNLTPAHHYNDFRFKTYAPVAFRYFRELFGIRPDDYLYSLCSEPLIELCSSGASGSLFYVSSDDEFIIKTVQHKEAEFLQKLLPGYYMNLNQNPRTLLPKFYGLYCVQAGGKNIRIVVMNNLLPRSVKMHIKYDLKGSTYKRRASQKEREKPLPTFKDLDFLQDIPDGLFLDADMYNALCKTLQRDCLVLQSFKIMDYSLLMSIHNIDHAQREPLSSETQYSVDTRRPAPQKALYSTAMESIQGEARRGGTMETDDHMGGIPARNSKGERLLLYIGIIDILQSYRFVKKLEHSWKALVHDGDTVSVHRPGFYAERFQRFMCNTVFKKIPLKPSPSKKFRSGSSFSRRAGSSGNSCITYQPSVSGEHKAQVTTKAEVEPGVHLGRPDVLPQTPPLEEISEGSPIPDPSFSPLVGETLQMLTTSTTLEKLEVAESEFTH"}, "[30]": {"target": "CLK2 (human) (UniProt P49760)"}, "[31]": {"target": "AURKC (human) (UniProt Q9UQB9)"}, "[32]": {"target": "PIK3CA (human) (UniProt P42336)"}, "[33]": {"system": "FLT3 (human), P36888 [ITD]"}, "[34]": {"target": "FLT3 (human) (UniProt P36888)"}, "[35]": {"target": "PIK3CG (human) (UniProt P48736)"}, "[36]": {"system": "FLT3 (human), P36888 [K663Q]"}, "[37]": {"target": "RPS6KA1 KD2 (human) (UniProt Q15418)"}, "[38]": {"target": "TNK1 (human) (UniProt Q13470)"}, "[39]": {"target": "FGFR4 (human) (UniProt P22455)"}, "[40]": {"target": "TYK2 JH1 catalytic (human) (UniProt P29597)"}, "[41]": {"target": "TNK2 (human) (UniProt Q07912)"}, "[42]": {"target": "PRKAA1 (human) (UniProt Q13131)"}, "[43]": {"target": "CSF1R (human) (UniProt P07333)"}, "[44]": {"system": "KIT (human), P10721 [V559D/V654A]"}, "[45]": {"target": "NUAK2 (human) (UniProt Q9H093)"}, "[46]": {"target": "PDGFRB (human) (UniProt P09619)"}, "[47]": {"target": "TAOK1 (human) (UniProt Q7L7X3)"}, "[48]": {"target": "RPS6KA6 KD2 (human) (UniProt Q9UK32)"}, "[49]": {"target": "PLK4 (human) (UniProt O00444)"}, "[50]": {"target": "PDGFRA (human) (UniProt P16234)"}, "[51]": {"target": "MAP3K3 (human) (UniProt Q99759)"}, "[52]": {"target": "PRKCD (human) (UniProt Q05655)"}, "[53]": {"target": "STK33 (human) (UniProt Q9BYT3)"}, "[54]": {"target": "MARK4 (human) (UniProt Q96L34)"}, "[55]": {"target": "FLT4 (human) (UniProt P35916)"}, "[56]": {"system": "RET (human), P07949 [M918T]"}, "[57]": {"target": "MERTK (human) (UniProt Q12866)"}, "[58]": {"target": "SRPK1 (human) (UniProt Q96SB4)"}, "[59]": {"target": "BRSK2 (human) (UniProt Q8IWQ3)"}},
  "data": [
    {"smiles": "COc1cc(C(N)=O)ccc1Nc1ncc2c(n1)N(C1CCCC1)[C@@H]1CCC[C@@H]1C(=O)N2C", "values": [
      {"measurement": "kinase still bound, per cent of control", "setting": "[1]", "result": 16, "unit": "%"},
      {"measurement": "kinase still bound, per cent of control", "setting": "[2]", "result": 29, "unit": "%"},
      {"measurement": "kinase still bound, per cent of control", "setting": "[3]", "result": 24, "unit": "%"},
      {"measurement": "kinase still bound, per cent of control", "setting": "[4]", "result": 31, "unit": "%"},
      {"measurement": "kinase still bound, per cent of control", "setting": "[5]", "result": 33, "unit": "%"},
      {"measurement": "kinase still bound, per cent of control", "setting": "[6]", "result": 25, "unit": "%"},
      {"measurement": "kinase still bound, per cent of control", "setting": "[7]", "result": 25, "unit": "%"},
      {"measurement": "kinase still bound, per cent of control", "setting": "[8]", "result": 13, "unit": "%"},
      {"measurement": "kinase still bound, per cent of control", "setting": "[9]", "result": 27, "unit": "%"},
      {"measurement": "kinase still bound, per cent of control", "setting": "[10]", "result": 0.15, "unit": "%"},
      {"measurement": "kinase still bound, per cent of control", "setting": "[11]", "result": 1.7, "unit": "%"}
    ]},
    {"smiles": "CN1C(=O)c2ccccc2N(C)c2nc(Nc3ccc(N4CCC(O)CC4)cn3)ncc21", "values": [
      {"measurement": "kinase still bound, per cent of control", "setting": "[12]", "result": 19, "unit": "%"},
      {"measurement": "kinase still bound, per cent of control", "setting": "[13]", "result": 3.1, "unit": "%"},
      {"measurement": "kinase still bound, per cent of control", "setting": "[14]", "result": 25, "unit": "%"},
      {"measurement": "kinase still bound, per cent of control", "setting": "[15]", "result": 31, "unit": "%"},
      {"measurement": "kinase still bound, per cent of control", "setting": "[16]", "result": 28, "unit": "%"},
      {"measurement": "kinase still bound, per cent of control", "setting": "[17]", "result": 20, "unit": "%"},
      {"measurement": "kinase still bound, per cent of control", "setting": "[18]", "result": 34, "unit": "%"},
      {"measurement": "kinase still bound, per cent of control", "setting": "[19]", "result": 8.2, "unit": "%"},
      {"measurement": "kinase still bound, per cent of control", "setting": "[20]", "result": 31, "unit": "%"},
      {"measurement": "kinase still bound, per cent of control", "setting": "[21]", "result": 1.6, "unit": "%"},
      {"measurement": "kinase still bound, per cent of control", "setting": "[22]", "result": 30, "unit": "%"},
      {"measurement": "kinase still bound, per cent of control", "setting": "[23]", "result": 33, "unit": "%"},
      {"measurement": "kinase still bound, per cent of control", "setting": "[1]", "result": 24, "unit": "%"},
      {"measurement": "kinase still bound, per cent of control", "setting": "[2]", "result": 0.3, "unit": "%"},
      {"measurement": "kinase still bound, per cent of control", "setting": "[3]", "result": 0.5, "unit": "%"},
      {"measurement": "kinase still bound, per cent of control", "setting": "[24]", "result": 1.8, "unit": "%"},
      {"measurement": "kinase still bound, per cent of control", "setting": "[25]", "result": 0.4, "unit": "%"},
      {"measurement": "kinase still bound, per cent of control", "setting": "[26]", "result": 19, "unit": "%"},
      {"measurement": "kinase still bound, per cent of control", "setting": "[27]", "result": 29, "unit": "%"},
      {"measurement": "kinase still bound, per cent of control", "setting": "[28]", "result": 21, "unit": "%"},
      {"measurement": "kinase still bound, per cent of control", "setting": "[29]", "result": 26, "unit": "%"},
      {"measurement": "kinase still bound, per cent of control", "setting": "[5]", "result": 33, "unit": "%"},
      {"measurement": "kinase still bound, per cent of control", "setting": "[30]", "result": 32, "unit": "%"},
      {"measurement": "kinase still bound, per cent of control", "setting": "[31]", "result": 3.7, "unit": "%"},
      {"measurement": "kinase still bound, per cent of control", "setting": "[32]", "result": 33, "unit": "%"},
      {"measurement": "kinase still bound, per cent of control", "setting": "[33]", "result": 33, "unit": "%"},
      {"measurement": "kinase still bound, per cent of control", "setting": "[34]", "result": 8.1, "unit": "%"},
      {"measurement": "kinase still bound, per cent of control", "setting": "[35]", "result": 2.2, "unit": "%"},
      {"measurement": "kinase still bound, per cent of control", "setting": "[36]", "result": 12, "unit": "%"},
      {"measurement": "kinase still bound, per cent of control", "setting": "[37]", "result": 34, "unit": "%"},
      {"measurement": "kinase still bound, per cent of control", "setting": "[38]", "result": 0.6, "unit": "%"},
      {"measurement": "kinase still bound, per cent of control", "setting": "[39]", "result": 25, "unit": "%"},
      {"measurement": "kinase still bound, per cent of control", "setting": "[40]", "result": 18, "unit": "%"},
      {"measurement": "kinase still bound, per cent of control", "setting": "[41]", "result": 31, "unit": "%"},
      {"measurement": "kinase still bound, per cent of control", "setting": "[42]", "result": 23, "unit": "%"},
      {"measurement": "kinase still bound, per cent of control", "setting": "[43]", "result": 14, "unit": "%"},
      {"measurement": "kinase still bound, per cent of control", "setting": "[44]", "result": 26, "unit": "%"},
      {"measurement": "kinase still bound, per cent of control", "setting": "[10]", "result": 0, "unit": "%"},
      {"measurement": "kinase still bound, per cent of control", "setting": "[45]", "result": 22, "unit": "%"},
      {"measurement": "kinase still bound, per cent of control", "setting": "[46]", "result": 2.6, "unit": "%"},
      {"measurement": "kinase still bound, per cent of control", "setting": "[47]", "result": 1, "unit": "%"},
      {"measurement": "kinase still bound, per cent of control", "setting": "[48]", "result": 30, "unit": "%"},
      {"measurement": "kinase still bound, per cent of control", "setting": "[49]", "result": 7.2, "unit": "%"},
      {"measurement": "kinase still bound, per cent of control", "setting": "[50]", "result": 8, "unit": "%"},
      {"measurement": "kinase still bound, per cent of control", "setting": "[51]", "result": 2.2, "unit": "%"}
    ]},
    {"smiles": "COc1cc(C(=O)NC2CCN(C)CC2)ccc1Nc1ncc2c(n1)N(C1CCCC1)CCC(=O)N2C(C)C", "values": [
      {"measurement": "kinase still bound, per cent of control", "setting": "[18]", "result": 0, "unit": "%"},
      {"measurement": "kinase still bound, per cent of control", "setting": "[52]", "result": 0, "unit": "%"},
      {"measurement": "kinase still bound, per cent of control", "setting": "[53]", "result": 32, "unit": "%"},
      {"measurement": "kinase still bound, per cent of control", "setting": "[1]", "result": 17, "unit": "%"},
      {"measurement": "kinase still bound, per cent of control", "setting": "[29]", "result": 6.4, "unit": "%"},
      {"measurement": "kinase still bound, per cent of control", "setting": "[54]", "result": 0, "unit": "%"},
      {"measurement": "kinase still bound, per cent of control", "setting": "[55]", "result": 0, "unit": "%"},
      {"measurement": "kinase still bound, per cent of control", "setting": "[56]", "result": 0, "unit": "%"},
      {"measurement": "kinase still bound, per cent of control", "setting": "[57]", "result": 34, "unit": "%"},
      {"measurement": "kinase still bound, per cent of control", "setting": "[58]", "result": 0, "unit": "%"},
      {"measurement": "kinase still bound, per cent of control", "setting": "[59]", "result": 0, "unit": "%"}
    ]}
  ]
}
